Data: ChEMBL document CHEMBL2429832, “N-substituted 8-aminopentacyclo[5.4.0.0(2,6).0(3,10).0(5,9)]undecanes as σ receptor ligands with potential neuroprotective effects” (Bioorg Med Chem, 2013)

Experiments:
[1] = target: 5-hydroxytryptamine receptor 1D (Homo sapiens) (UniProt P28221); test: Inhibition of 5-HT1D receptor (unknown origin) at 10 uM by PDSP assay relative to control
[2] = target: T1, Muscarinic acetylcholine receptor M2 (Homo sapiens, UniProt P08172); test: Inhibition of muscarinic M2 receptor (unknown origin) by PDSP assay
T1 sequence (P08172 whole entry): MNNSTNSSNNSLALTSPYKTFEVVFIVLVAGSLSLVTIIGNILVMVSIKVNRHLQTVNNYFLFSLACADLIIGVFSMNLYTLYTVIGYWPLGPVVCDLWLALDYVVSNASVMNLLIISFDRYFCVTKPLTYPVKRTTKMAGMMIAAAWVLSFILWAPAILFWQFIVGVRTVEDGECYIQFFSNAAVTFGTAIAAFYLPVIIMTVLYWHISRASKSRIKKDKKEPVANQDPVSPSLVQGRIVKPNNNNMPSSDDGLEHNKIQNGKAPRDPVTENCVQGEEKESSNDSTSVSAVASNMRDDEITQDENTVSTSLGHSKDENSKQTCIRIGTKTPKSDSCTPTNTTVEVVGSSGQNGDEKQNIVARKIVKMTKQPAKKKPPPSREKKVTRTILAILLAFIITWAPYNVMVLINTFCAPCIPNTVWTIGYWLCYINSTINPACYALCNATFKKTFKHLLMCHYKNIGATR

[3] = target: Sodium-dependent noradrenaline transporter (Homo sapiens, UniProt P23975); test: Displacement of [3H]-nisoxetine from human NET expressed in HEK cell membranes at 10 uM relative to control; conditions: HEK293
Chain of Sodium-dependent noradrenaline transporter (P23975 whole entry): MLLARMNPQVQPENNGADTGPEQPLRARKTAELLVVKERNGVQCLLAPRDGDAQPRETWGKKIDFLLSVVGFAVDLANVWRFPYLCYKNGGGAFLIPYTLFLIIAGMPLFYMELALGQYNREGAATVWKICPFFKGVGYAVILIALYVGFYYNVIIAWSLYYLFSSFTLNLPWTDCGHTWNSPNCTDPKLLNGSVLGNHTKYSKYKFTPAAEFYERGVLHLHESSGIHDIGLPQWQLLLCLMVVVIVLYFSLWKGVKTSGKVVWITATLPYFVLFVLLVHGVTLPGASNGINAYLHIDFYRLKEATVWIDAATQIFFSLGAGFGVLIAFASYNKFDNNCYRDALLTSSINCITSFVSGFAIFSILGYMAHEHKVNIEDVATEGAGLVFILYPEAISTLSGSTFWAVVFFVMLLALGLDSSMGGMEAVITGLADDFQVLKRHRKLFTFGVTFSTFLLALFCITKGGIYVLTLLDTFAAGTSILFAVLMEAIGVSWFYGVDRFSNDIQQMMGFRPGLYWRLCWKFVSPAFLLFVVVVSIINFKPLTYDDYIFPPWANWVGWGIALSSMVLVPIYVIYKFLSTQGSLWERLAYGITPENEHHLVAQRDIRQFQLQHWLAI

[4] = target: Sodium-dependent dopamine transporter (Homo sapiens, UniProt Q01959); test: Displacement of [3H]-WIN-35,428 from human DAT expressed in HEK cell membranes at 10 uM relative to control; conditions: HEK293
Chain of Sodium-dependent dopamine transporter (Q01959 whole entry): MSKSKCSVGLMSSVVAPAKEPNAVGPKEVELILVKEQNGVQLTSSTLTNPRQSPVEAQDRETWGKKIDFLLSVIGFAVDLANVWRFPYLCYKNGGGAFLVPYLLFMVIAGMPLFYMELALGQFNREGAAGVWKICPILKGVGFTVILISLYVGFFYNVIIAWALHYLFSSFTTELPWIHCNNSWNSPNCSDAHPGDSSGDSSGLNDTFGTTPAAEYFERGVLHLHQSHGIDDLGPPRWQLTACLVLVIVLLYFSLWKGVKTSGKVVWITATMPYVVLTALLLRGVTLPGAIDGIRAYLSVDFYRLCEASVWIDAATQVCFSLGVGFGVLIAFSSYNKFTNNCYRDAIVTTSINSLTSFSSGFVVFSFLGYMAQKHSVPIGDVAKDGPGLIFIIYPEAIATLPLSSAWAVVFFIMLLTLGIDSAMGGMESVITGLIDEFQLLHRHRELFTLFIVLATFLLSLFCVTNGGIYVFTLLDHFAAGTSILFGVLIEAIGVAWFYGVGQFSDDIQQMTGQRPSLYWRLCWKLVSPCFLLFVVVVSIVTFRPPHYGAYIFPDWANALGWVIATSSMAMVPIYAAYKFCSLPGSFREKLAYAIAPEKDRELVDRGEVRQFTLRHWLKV

[5] = organism: Rattus norvegicus; test: Inhibition of rat brain BZP receptor at 10 uM by PDSP assay relative to control
[6] = target: 5-hydroxytryptamine receptor 2B (Homo sapiens, UniProt P41595); test: Inhibition of 5-HT2B receptor (unknown origin) at 10 uM by PDSP assay relative to control
Chain of 5-hydroxytryptamine receptor 2B (P41595 whole entry): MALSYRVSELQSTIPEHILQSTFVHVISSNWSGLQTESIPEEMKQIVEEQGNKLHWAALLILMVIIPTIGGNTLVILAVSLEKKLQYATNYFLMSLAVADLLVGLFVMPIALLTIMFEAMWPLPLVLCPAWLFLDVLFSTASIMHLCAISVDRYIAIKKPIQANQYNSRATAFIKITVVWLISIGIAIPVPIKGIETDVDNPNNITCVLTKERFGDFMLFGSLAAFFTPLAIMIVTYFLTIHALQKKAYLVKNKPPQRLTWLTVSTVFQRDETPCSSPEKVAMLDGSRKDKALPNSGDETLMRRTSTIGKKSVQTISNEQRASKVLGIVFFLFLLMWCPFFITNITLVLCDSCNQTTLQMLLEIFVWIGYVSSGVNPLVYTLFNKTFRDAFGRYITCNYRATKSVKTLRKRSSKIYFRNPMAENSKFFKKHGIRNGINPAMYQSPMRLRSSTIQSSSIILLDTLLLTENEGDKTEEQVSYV

[7] = target: T2, 5-hydroxytryptamine receptor 3A (Homo sapiens) (UniProt P46098); test: Inhibition of 5-HT3 receptor (unknown origin) at 10 uM by PDSP assay relative to control
T2 sequence (whole entry): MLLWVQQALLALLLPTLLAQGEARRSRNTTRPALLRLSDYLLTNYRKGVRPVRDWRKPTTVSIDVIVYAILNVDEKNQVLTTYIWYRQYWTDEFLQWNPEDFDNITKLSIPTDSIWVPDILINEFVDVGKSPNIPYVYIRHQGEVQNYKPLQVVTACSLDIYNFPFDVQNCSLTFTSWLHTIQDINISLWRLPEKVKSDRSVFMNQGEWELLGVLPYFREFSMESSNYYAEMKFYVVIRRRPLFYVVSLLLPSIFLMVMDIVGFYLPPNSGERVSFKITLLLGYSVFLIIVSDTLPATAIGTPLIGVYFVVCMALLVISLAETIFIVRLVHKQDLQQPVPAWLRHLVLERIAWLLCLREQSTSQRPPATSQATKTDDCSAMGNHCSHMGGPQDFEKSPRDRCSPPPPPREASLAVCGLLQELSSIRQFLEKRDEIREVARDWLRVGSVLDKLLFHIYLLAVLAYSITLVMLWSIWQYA

[8] = target: GABA-A receptor; agonist GABA site (Homo sapiens) (UniProt P14867+P47870+P28472+P48169+P34903+P18505+P47869+P31644+Q16445); test: Inhibition of GABAA receptor (unknown origin) at 10 uM by PDSP assay relative to control; assay type: protein-complex assay
[9] = target: 5-hydroxytryptamine receptor 1E (Homo sapiens) (UniProt P28566); test: Inhibition of 5-HT1E receptor (unknown origin) at 10 uM by PDSP assay relative to control
Chain of 5-hydroxytryptamine receptor 1E (Homo sapiens) (P28566 whole entry): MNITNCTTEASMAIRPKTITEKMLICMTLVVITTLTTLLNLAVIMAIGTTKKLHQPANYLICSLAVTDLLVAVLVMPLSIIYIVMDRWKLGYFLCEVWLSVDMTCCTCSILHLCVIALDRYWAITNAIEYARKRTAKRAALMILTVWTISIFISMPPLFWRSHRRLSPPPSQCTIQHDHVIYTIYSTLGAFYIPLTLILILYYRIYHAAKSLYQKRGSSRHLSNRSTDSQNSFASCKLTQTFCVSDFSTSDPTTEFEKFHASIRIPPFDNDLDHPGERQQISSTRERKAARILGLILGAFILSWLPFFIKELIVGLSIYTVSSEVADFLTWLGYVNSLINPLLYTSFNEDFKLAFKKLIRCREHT

[10] = target: Beta-2 adrenergic receptor (Homo sapiens) (UniProt P07550); test: Inhibition of adrenergic beta2 receptor (unknown origin) at 10 uM by PDSP assay relative to control
Chain of Beta-2 adrenergic receptor (Homo sapiens) (P07550 whole entry, looked up): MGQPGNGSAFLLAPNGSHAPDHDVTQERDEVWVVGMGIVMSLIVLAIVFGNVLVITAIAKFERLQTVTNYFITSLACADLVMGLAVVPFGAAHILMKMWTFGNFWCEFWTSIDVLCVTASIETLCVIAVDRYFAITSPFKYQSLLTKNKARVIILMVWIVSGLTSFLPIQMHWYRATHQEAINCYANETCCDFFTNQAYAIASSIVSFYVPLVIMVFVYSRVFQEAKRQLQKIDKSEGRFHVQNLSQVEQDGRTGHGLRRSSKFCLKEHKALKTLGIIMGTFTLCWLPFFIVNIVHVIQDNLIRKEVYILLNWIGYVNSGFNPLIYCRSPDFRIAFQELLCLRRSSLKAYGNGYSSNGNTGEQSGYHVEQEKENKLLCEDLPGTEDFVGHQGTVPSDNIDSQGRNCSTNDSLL

[11] = target: Mu-type opioid receptor (Homo sapiens, UniProt P35372); test: Inhibition of mu opioid receptor (unknown origin) at 10 uM by PDSP assay relative to control
Chain of Mu-type opioid receptor (P35372 whole entry): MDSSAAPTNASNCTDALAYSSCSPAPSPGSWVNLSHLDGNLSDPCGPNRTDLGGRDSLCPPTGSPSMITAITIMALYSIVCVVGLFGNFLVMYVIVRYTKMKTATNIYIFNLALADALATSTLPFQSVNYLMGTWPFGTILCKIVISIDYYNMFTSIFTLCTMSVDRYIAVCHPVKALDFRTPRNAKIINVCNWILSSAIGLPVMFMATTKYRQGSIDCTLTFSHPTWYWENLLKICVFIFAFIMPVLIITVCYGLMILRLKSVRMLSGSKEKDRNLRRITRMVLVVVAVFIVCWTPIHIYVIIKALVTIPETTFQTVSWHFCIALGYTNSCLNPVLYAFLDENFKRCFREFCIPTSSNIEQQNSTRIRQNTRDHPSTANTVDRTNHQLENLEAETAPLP

[12] = target: Delta-type opioid receptor (Homo sapiens, UniProt P41143); test: Inhibition of delta opioid receptor (unknown origin) at 10 uM by PDSP assay relative to control
Chain of Delta-type opioid receptor (P41143 whole entry): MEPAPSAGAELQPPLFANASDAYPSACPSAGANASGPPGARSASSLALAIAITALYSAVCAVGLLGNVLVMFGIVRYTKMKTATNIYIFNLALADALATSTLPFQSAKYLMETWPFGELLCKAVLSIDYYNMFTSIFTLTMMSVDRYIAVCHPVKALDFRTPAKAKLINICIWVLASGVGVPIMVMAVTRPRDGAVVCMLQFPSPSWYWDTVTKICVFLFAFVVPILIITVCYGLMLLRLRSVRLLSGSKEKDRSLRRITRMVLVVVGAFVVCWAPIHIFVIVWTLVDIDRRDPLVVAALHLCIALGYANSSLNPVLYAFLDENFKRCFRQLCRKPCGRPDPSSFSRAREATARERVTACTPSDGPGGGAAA

[13] = target: T3, Alpha-2B adrenergic receptor (Homo sapiens) (UniProt P18089); test: Inhibition of adrenergic alpha2B receptor (unknown origin) at 10 uM by PDSP assay relative to control
T3 sequence (whole entry): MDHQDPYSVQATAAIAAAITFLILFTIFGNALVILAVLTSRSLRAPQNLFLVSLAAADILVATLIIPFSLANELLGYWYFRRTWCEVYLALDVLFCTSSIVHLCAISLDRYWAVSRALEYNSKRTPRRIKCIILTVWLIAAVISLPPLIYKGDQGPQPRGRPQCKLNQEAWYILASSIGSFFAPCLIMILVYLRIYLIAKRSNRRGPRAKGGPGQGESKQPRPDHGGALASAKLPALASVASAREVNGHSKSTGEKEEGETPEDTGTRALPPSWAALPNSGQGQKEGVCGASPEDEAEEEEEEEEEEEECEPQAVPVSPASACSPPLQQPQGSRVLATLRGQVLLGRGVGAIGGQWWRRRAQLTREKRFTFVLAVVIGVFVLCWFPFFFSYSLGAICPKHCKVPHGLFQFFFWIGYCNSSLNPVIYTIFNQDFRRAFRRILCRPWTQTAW

[14] = target: T4, Muscarinic acetylcholine receptor M4 (Homo sapiens, UniProt P08173); test: Inhibition of muscarinic M4 receptor (unknown origin) by PDSP assay
T4 sequence (P08173 whole entry): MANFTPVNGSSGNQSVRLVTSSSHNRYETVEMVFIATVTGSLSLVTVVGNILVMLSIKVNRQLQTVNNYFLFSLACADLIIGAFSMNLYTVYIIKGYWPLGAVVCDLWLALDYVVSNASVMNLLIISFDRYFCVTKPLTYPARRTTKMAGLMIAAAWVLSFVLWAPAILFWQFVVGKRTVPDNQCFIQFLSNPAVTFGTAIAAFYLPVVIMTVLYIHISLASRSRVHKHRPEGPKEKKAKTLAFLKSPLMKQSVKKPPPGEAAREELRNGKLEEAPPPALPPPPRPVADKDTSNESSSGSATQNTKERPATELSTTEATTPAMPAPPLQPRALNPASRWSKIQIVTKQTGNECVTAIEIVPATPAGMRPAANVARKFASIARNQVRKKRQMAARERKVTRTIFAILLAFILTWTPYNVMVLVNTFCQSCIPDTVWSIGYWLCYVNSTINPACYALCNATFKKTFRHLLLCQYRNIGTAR

Chain of 5-hydroxytryptamine receptor 1D (Homo sapiens) (P28221 whole entry): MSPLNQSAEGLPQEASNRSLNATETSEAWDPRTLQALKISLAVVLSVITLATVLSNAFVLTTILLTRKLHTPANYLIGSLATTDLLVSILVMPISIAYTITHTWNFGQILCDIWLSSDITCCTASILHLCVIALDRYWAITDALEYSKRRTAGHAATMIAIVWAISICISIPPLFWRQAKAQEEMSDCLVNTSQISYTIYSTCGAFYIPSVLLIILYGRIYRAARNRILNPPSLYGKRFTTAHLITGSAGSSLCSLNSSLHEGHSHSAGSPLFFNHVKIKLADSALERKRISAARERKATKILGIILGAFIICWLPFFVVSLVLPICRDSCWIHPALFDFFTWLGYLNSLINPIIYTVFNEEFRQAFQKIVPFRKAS

SMILES	inhibition [1] [%]	Ki [2] [nM]	inhibition [3] [%]	inhibition [4] [%]	inhibition [5] [%]	inhibition [6] [%]	inhibition [7] [%]	inhibition [8] [%]	inhibition [9] [%]	inhibition [10] [%]	inhibition [11] [%]	inhibition [12] [%]	inhibition [13] [%]	Ki [14] [nM]
CN(CCc1ccccn1)[C@H]1C2C3CC4C2C(=O)C2C4C3C21 (stereo not given in full)	< 50	> 10000	< 50	< 50	< 50	< 50	< 50	< 50	< 50	< 50	< 50	< 50	–	–
CN(Cc1cccnc1)[C@H]1C2C3CC4C5C3CC2C5C41 (stereo not given in full)	< 50	> 10000	< 50	< 50	< 50	< 50	< 50	< 50	< 50	< 50	< 50	< 50	< 50	–
c1ccc(CCN[C@H]2C3C4CC5C6C4CC3C6C52)nc1 (stereo not given in full)	< 50	2790	< 50	–	–	< 50	< 50	–	< 50	< 50	< 50	< 50	–	1300
c1cc2c(cc1CN[C@H]1C3C4CC5C6C4CC3C6C51)OCO2 (stereo not given in full)	< 50	4410	–	< 50	< 50	< 50	< 50	< 50	< 50	< 50	< 50	< 50	–	6530
CN(Cc1cccnc1)[C@H]1C2C3CC4C2C(=O)C2C4C3C21 (stereo not given in full)	< 50	8850	< 50	< 50	< 50	< 50	< 50	< 50	< 50	< 50	< 50	< 50	< 50	6990
c1ccc(CCN[C@H]2C3C4CC5C6C4CC3C6C52)cc1 (stereo not given in full)	< 50	1030	< 50	–	–	< 50	< 50	–	< 50	< 50	< 50	< 50	–	892
CN(CCc1ccccn1)[C@H]1C2C3CC4C5C3CC2C5C41 (stereo not given in full)	< 50	3550	< 50	< 50	< 50	< 50	< 50	< 50	< 50	< 50	–	–	< 50	3810

Continued by falling Ki [2], values first:

inhibition [1] [%]	Ki [2] [nM]	inhibition [3] [%]	inhibition [4] [%]	inhibition [5] [%]	inhibition [6] [%]	inhibition [7] [%]	inhibition [8] [%]	inhibition [9] [%]	inhibition [10] [%]	inhibition [11] [%]	inhibition [12] [%]	inhibition [13] [%]	Ki [14] [nM]	SMILES
< 50	2290	< 50	< 50	< 50	< 50	< 50	< 50	< 50	< 50	< 50	< 50	< 50	2800	CN(CCc1cccc(F)c1)[C@H]1C2C3CC4C2C(=O)C2C4C3C21 (stereo not given in full)
< 50	1940	< 50	–	< 50	< 50	< 50	< 50	< 50	< 50	< 50	< 50	< 50	3590	CN(CCc1ccccc1)[C@H]1C2C3CC4C2C(=O)C2C4C3C21 (stereo not given in full)
< 50	1730	< 50	–	< 50	< 50	< 50	< 50	< 50	< 50	< 50	< 50	< 50	4040	CN(Cc1cccc(F)c1)[C@H]1C2C3CC4C2C(=O)C2C4C3C21 (stereo not given in full)
< 50	1010	< 50	< 50	< 50	< 50	< 50	< 50	< 50	< 50	< 50	< 50	–	707	C1CCC(CN[C@H]2C3C4CC5C6C4CC3C6C52)CC1 (stereo not given in full)
< 50	487	–	< 50	< 50	< 50	< 50	< 50	< 50	< 50	< 50	< 50	< 50	619	CN(CCCc1cccc(F)c1)[C@H]1C2C3CC4C2C(=O)C2C4C3C21 (stereo not given in full)
< 50	474	< 50	< 50	< 50	< 50	< 50	< 50	< 50	< 50	< 50	< 50	< 50	1260	CN(Cc1ccccc1)[C@H]1C2C3CC4C2C(=O)C2C4C3C21 (stereo not given in full)
< 50	195	< 50	–	< 50	< 50	< 50	< 50	< 50	< 50	< 50	< 50	–	354	C1C2C3CC4C2C2C1C3[C@H](NCC13C5C6C7C5C1C7C63)C42 (stereo not given in full)
